Bridge positions count the residues as written; N and C are the ends. Square brackets hold non-standard residues; d marks the D form. Peptide text beside a SMILES is read from it. * marks the point of attachment. ξ: configuration not given here. Phe(3-CF3) = N[C@@H](Cc1cccc(C(F)(F)F)c1)C(=O)O; Phe(4-COOH) = N[C@@H](Cc1ccc(C(=O)O)cc1)C(=O)O; Bip = N[C@@H](Cc1ccc(-c2ccccc2)cc1)C(=O)O; NH(CH2)14COOH = O=C(O)CCCCCCCCCCCCCCN*; Phe(3-Me) = Cc1cccc(C[C@H](N)C(=O)O)c1; NH(CH2)12COOH = O=C(O)CCCCCCCCCCCCN*; Val(3-OH) = CC(C)(O)[C@H](N)C(=O)O; 4Pal = N[C@@H](Cc1ccncc1)C(=O)O; Cha = N[C@@H](CC1CCCCC1)C(=O)O; Cit = NC(=O)NCCC[C@H](N)C(=O)O; Ile(3ξ) = CCC(C)[C@H](N)C(=O)O; aThr = C[C@H](O)[C@H](N)C(=O)O; PEG4 = NCCOCCOCCOCCOCCC(=O)O; Dap(Me) = CNC[C@H](N)C(=O)O; 12Ado = NCCCCCCCCCCCC(=O)O; Carboxymethyl = O=C(O)C*; Orn = NCCC[C@H](N)C(=O)O; Aun = NCCCCCCCCCCC(=O)O; Dab = NCC[C@H](N)C(=O)O; Dap = NC[C@H](N)C(=O)O; AEEA = NCCOCCOCC(=O)O; ξC = NC(CS)C(=O)O
Target: T1, PD-1/PD-L1 interaction (PE-labeled human PD-L1-Ig binding to Jurkat cell line over-expressing human PD-1) (Homo sapiens, UniProt Q15116)
T1 construct: expressed in transfected cells; host or cells: Jurkat
Assay: Jurkat-PD-1 Cell Binding High-Content Screening Assay (CBA)
Type: cell-based
Details: Jurkat cell line over-expressing human PD-1; PE-labeled PD-L1-Ig 20 nM final; read-out: Jurkat hPD1-PDL1 IC50
In short: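 Binding of fluorescent PD-L1-Ig (phycoerythrin on Ig tag, 20 nM final, 1 h) measured by high-content imaging of fixed, Hoechst-counterstained Jurkat-hPD-1 cells. Compound added 2 h at 37° C beforehand, in DMEM with 10% fetal calf serum.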

T1 sequence (Q15116 25-288): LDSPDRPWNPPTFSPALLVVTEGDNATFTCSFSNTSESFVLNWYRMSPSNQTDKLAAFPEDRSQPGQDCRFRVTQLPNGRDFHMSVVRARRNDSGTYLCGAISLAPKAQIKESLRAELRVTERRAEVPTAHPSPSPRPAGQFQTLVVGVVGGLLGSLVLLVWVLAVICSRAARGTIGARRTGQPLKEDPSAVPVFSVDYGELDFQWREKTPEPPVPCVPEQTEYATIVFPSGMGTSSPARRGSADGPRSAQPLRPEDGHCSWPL

IC50 [nM] | Structure (SMILES)
14 | Cc1cccc(C[C@@H]2NC(=O)[C@H](CC(=O)O)NC(=O)[C@H](Cc3ccc(OCC(=O)O)cc3)NC(=O)[C@H]([C@@H](C)O)NC(=O)CSC[C@@H](C(=O)N[C@@H](CCN)C(=O)NCCCCCCCCCCC(=O)O)NC(=O)[C@H](CO)NC(=O)[C@H](C(C)(C)O)NC(=O)[C@H](CC3CCCCC3)NC(=O)[C@H](CCN)NC(=O)[C@@H](CC(C)C)NC(=O)[C@H](CCCN)NC(=O)[C@H](Cc3ccc(OCC(=O)O)cc3)NC(=O)[C@H](Cc3ccc(-c4ccccc4)cc3)NC(=O)[C@H](Cc3ccc(OCC(=O)O)cc3)NC2=O)c1 [Compound 2208] ({CH2CO}-TY(Carboxymethyl)D[Phe(3-Me)]Y(Carboxymethyl)[Bip]Y(Carboxymethyl)[Orn][dL][Dab][Cha][Val(3-OH)]SC[Dab][Aun]-OH; thioether N-14)
14.2 | Cc1cccc(C[C@@H]2NC(=O)[C@H](CC(=O)O)NC(=O)[C@H](Cc3ccc(OCC(=O)O)cc3)NC(=O)[C@H](CN)NC(=O)CSC[C@@H](C(=O)N[C@@H](CCN)C(=O)NCCCCCCCCCCC(=O)O)NC(=O)[C@H](CCCN)NC(=O)[C@H](C(C)C)NC(=O)[C@H](CC3CCCCC3)NC(=O)[C@H](CCN)NC(=O)[C@@H](CC(C)C)NC(=O)[C@H](CCCN)NC(=O)[C@H](CCCNC(N)=O)NC(=O)[C@H](Cc3ccc(-c4ccccc4)cc3)NC(=O)[C@H](C(C)C)NC2=O)c1 [Compound 2845] ({CH2CO}-[Dap]Y(Carboxymethyl)D[Phe(3-Me)]V[Bip][Cit][Orn][dL][Dab][Cha]V[Orn]C[Dab][Aun]-OH; thioether N-14)
20.6 | Cc1cccc(C[C@@H]2NC(=O)[C@H](CC(=O)O)NC(=O)[C@H](Cc3ccc(C(=O)O)cc3)NC(=O)[C@H](Cc3ccncc3)NC(=O)CSC[C@@H](C(=O)NCCOCCOCC(=O)NCCOCCOCC(=O)NCCCCCCCCCCC(=O)O)NC(=O)[C@H](Cc3cnc[nH]3)NC(=O)[C@H](C(C)(C)O)NC(=O)[C@H](CC3CCCCC3)NC(=O)[C@H](CCN)NC(=O)[C@@H](CC(C)C)NC(=O)[C@H](CCCN)NC(=O)[C@H](Cc3ccc(OCC(=O)O)cc3)NC(=O)[C@H](Cc3ccc(-c4ccccc4)cc3)NC(=O)[C@H](Cc3ccc(OCC(=O)O)cc3)NC2=O)c1 [Compound 3735] ({CH2CO}-[4Pal][Phe(4-COOH)]D[Phe(3-Me)]Y(Carboxymethyl)[Bip]Y(Carboxymethyl)[Orn][dL][Dab][Cha][Val(3-OH)]HC[AEEA][AEEA][Aun]-OH; thioether N-14)
53.4 | Cc1cccc(C[C@@H]2NC(=O)[C@H](CC(=O)O)NC(=O)[C@H](Cc3ccc(OCC(=O)O)cc3)NC(=O)[C@H](CCN)NC(=O)CSC[C@@H](C(=O)N[C@@H](CCN)C(=O)NCCOCCOCC(=O)N[C@@H](CCC(=O)O)C(=O)NCCCCCCCCCCCCCCC(=O)O)NC(=O)[C@H](CO)NC(=O)[C@H](C(C)(C)O)NC(=O)[C@H](CC3CCCCC3)NC(=O)[C@H](CCN)NC(=O)[C@@H](CC(C)C)NC(=O)[C@H](CCCN)NC(=O)[C@H](Cc3ccc(OCC(=O)O)cc3)NC(=O)[C@H](Cc3ccc(-c4ccccc4)cc3)NC(=O)[C@H](Cc3ccc(OCC(=O)O)cc3)NC2=O)c1 [Compound 3814] ({CH2CO}-[Dab]Y(Carboxymethyl)D[Phe(3-Me)]Y(Carboxymethyl)[Bip]Y(Carboxymethyl)[Orn][dL][Dab][Cha][Val(3-OH)]SC[Dab][AEEA]E-{NH(CH2)14COOH}; thioether N-14)
28.3 | CNC[C@H](NC(=O)[C@@H]1CSCC(=O)N[C@@H](CN)C(=O)N[C@@H](Cc2ccc(OCC(=O)O)cc2)C(=O)N[C@@H](CC(=O)O)C(=O)N[C@@H](Cc2cccc(C)c2)C(=O)N[C@@H](C(C)C)C(=O)N[C@@H](Cc2ccc(-c3ccccc3)cc2)C(=O)N[C@@H](CCCNC(N)=O)C(=O)N[C@@H](CCCN)C(=O)N[C@H](CC(C)C)C(=O)N[C@@H](CCN)C(=O)N[C@@H](CC2CCCCC2)C(=O)N[C@@H](C(C)C)C(=O)N[C@@H]([C@@H](C)O)C(=O)N1)C(=O)NCCCCCCCCCCC(=O)O [Compound 2787] ({CH2CO}-[Dap]Y(Carboxymethyl)D[Phe(3-Me)]V[Bip][Cit][Orn][dL][Dab][Cha]VTC[Dap(Me)][Aun]-OH; thioether N-14)
20.7 | CCC(C)[C@@H]1NC(=O)[C@H](Cc2ccc(-c3ccccc3)cc2)NC(=O)[C@H](CC(C)C)NC(=O)[C@H](Cc2c[nH]c3ccccc23)NC(=O)[C@H](CC(=O)O)NC(=O)[C@H](Cc2ccc(OCC(=O)O)cc2)NC(=O)[C@H]([C@H](C)O)NC(=O)CSC[C@@H](C(=O)NCCOCCOCC(=O)N[C@@H](CCCCN)C(=O)NCCCCCCCCCCC(=O)O)NC(=O)[C@H](CO)NC(=O)[C@H](C(C)C)NC(=O)[C@H](CC(C)C)NC(=O)[C@H](CCN)NC(=O)[C@@H](CC(C)C)NC(=O)[C@H](CCCN)NC1=O (stereo partly drawn) [Compound 3081] ({CH2CO}-[aThr]Y(Carboxymethyl)DWL[Bip][Ile(3ξ)][Orn][dL][Dab]LVSC[AEEA]K[Aun]-OH; thioether N-14)
42.4 | CC(C)C[C@H]1NC(=O)[C@H](CCCN)NC(=O)[C@H](C(C)C)NC(=O)[C@H](Cc2ccc(-c3ccccc3)cc2)NC(=O)[C@H](C(C)C)NC(=O)[C@H](Cc2c[nH]c3ccccc23)NC(=O)[C@H](CC(=O)O)NC(=O)[C@H](Cc2ccc(OCC(=O)O)cc2)NC(=O)[C@H](CN)NC(=O)CSCC(C(=O)N[C@H](CCC(=O)O)C(=O)NCCCCCCCCCCC(=O)O)NC(=O)[C@H]([C@@H](C)O)NC(=O)[C@H](C(C)C)NC(=O)[C@H](CC2CCCCC2)NC(=O)[C@H](Cc2cnc[nH]2)NC1=O (stereo partly drawn) [Compound 1122] ({CH2CO}-[Dap]Y(Carboxymethyl)DWV[Bip]V[Orn][dL]H[Cha]VT[ξC][dE][Aun]-OH; thioether N-14)
22.5 | CC(C)C[C@H]1NC(=O)[C@H](CCCN)NC(=O)[C@H](Cc2ccc(C(=O)O)cc2)NC(=O)[C@H](Cc2ccc(-c3ccccc3)cc2)NC(=O)[C@H](Cc2ccc(C(=O)O)cc2)NC(=O)[C@H](Cc2cccc(C(F)(F)F)c2)NC(=O)[C@H](CC(=O)O)NC(=O)[C@H](Cc2ccc(OCC(=O)O)cc2)NC(=O)[C@H](C)NC(=O)CSC[C@@H](C(=O)N[C@@H](CCN)C(=O)NCCCCCCCCCCCCC(=O)O)NC(=O)[C@H](Cc2c[nH]cn2)NC(=O)[C@H](C(C)(C)O)NC(=O)[C@H](CC2CCCCC2)NC(=O)[C@H](CCN)NC1=O [Compound 2923] ({CH2CO}-AY(Carboxymethyl)D[Phe(3-CF3)][Phe(4-COOH)][Bip][Phe(4-COOH)][Orn][dL][Dab][Cha][Val(3-OH)]HC[Dab]-{NH(CH2)12COOH}; thioether N-14)
264 | CC(C)C[C@H]1NC(=O)[C@H](CCCN)NC(=O)[C@H](Cc2ccc(C(=O)O)cc2)NC(=O)[C@H](Cc2ccc(-c3ccccc3)cc2)NC(=O)[C@H](Cc2ccc(C(=O)O)cc2)NC(=O)[C@H](Cc2cccc(C(F)(F)F)c2)NC(=O)[C@H](CC(=O)O)NC(=O)[C@H](Cc2ccc(OCC(=O)O)cc2)NC(=O)[C@H](C)NC(=O)CSC[C@@H](C(=O)N[C@@H](CCN)C(=O)NCCOCCOCCOCCOCCC(=O)NCCCCCCCCCCCCCCC(=O)O)NC(=O)[C@H](Cc2c[nH]cn2)NC(=O)[C@H](C(C)(C)O)NC(=O)[C@H](CC2CCCCC2)NC(=O)[C@H](CCN)NC1=O [Compound 2954] ({CH2CO}-AY(Carboxymethyl)D[Phe(3-CF3)][Phe(4-COOH)][Bip][Phe(4-COOH)][Orn][dL][Dab][Cha][Val(3-OH)]HC[Dab][PEG4]-{NH(CH2)14COOH}; thioether N-14)
13 | CC(C)C[C@H]1NC(=O)[C@H](CCCN)NC(=O)[C@H](C(C)C)NC(=O)[C@H](Cc2ccc(-c3ccccc3)cc2)NC(=O)[C@H](C(C)C)NC(=O)[C@H](Cc2c[nH]c3ccccc23)NC(=O)[C@H](CC(=O)O)NC(=O)[C@H](Cc2ccc(OCC(=O)O)cc2)NC(=O)[C@H](CCCNC(=N)N)NC(=O)CSC[C@@H](C(=O)N[C@@H](CCN)C(=O)NCCCCCCCCCCC(=O)O)NC(=O)[C@H](CCCN)NC(=O)[C@H](C(C)C)NC(=O)[C@H](CC2CCCCC2)NC(=O)[C@H](CCN)NC1=O [Compound 3289] ({CH2CO}-RY(Carboxymethyl)DWV[Bip]V[Orn][dL][Dab][Cha]V[Orn]C[Dab][Aun]-OH; thioether N-14)
78.1 | Cc1cccc(C[C@@H]2NC(=O)[C@H](CC(=O)O)NC(=O)[C@H](Cc3ccc(OCC(=O)O)cc3)NC(=O)[C@H](CCCNC(=N)N)NC(=O)CSC[C@@H](C(=O)N[C@@H](CCN)C(=O)NCCCCCCCCCCCCCCC(=O)O)NC(=O)[C@H](CO)NC(=O)[C@H](C(C)(C)O)NC(=O)[C@H](CC3CCCCC3)NC(=O)[C@H](CCN)NC(=O)[C@@H](CC(C)C)NC(=O)[C@H](CCCN)NC(=O)[C@H](Cc3ccc(OCC(=O)O)cc3)NC(=O)[C@H](Cc3ccc(-c4ccccc4)cc3)NC(=O)[C@H](Cc3ccc(OCC(=O)O)cc3)NC2=O)c1 [Compound 2228] ({CH2CO}-RY(Carboxymethyl)D[Phe(3-Me)]Y(Carboxymethyl)[Bip]Y(Carboxymethyl)[Orn][dL][Dab][Cha][Val(3-OH)]SC[Dab]-{NH(CH2)14COOH}; thioether N-14)
8.6 | CNC[C@@H]1NC(=O)CSC[C@@H](C(=O)N[C@@H](CCN)C(=O)NCCCCCCCCCCCC(=O)O)NC(=O)[C@H](CCCN)NC(=O)[C@H](C(C)C)NC(=O)[C@H](CC2CCCCC2)NC(=O)[C@H](CCN)NC(=O)[C@@H](CC(C)C)NC(=O)[C@H](CCCN)NC(=O)[C@H](Cc2ccc(O)cc2)NC(=O)[C@H](Cc2ccc(-c3ccccc3)cc2)NC(=O)[C@H](C(C)C)NC(=O)[C@H](Cc2cccc(C)c2)NC(=O)[C@H](CC(=O)O)NC(=O)[C@H](Cc2ccc(OCC(=O)O)cc2)NC1=O [Compound 3592] ({CH2CO}-[Dap(Me)]Y(Carboxymethyl)D[Phe(3-Me)]V[Bip]Y[Orn][dL][Dab][Cha]V[Orn]C[Dab][12Ado]-OH; thioether N-14)

Source: US20260022142A1, “MACROCYCLIC IMMUNOMODULATORS” (Bristol-Myers Squibb Company, priority 2022, published 2026)
